Test results reported in patent publication US20130102538A1, “METHOD OF TREATING ALZHEIMER'S DISEASE USING PHARMACOLOGICAL CHAPERONES TO INCREASE PRESENILIN FUNCTION AND GAMMA-SECRETASE ACTIVITY” (AMICUS THERAPEUTICS, INC., priority 2010, published 2013).
“Also recorded” adds a separate entry of the source. Non-standard residues stand in square brackets, D forms with d. Residues, ends and D or L forms follow the SMILES beside them. ξ: configuration not given here. *: point of attachment. Cbz = O=C(OCc1ccccc1)*; Boc = CC(C)(C)OC(=O)*; ξNle = CCCCC(N)C(=O)O

Experiments:
PS1 precursor [1] = biological target: T1, PS1 precursor (Homo sapiens, UniProt P49768); assay: Screening of γ-secretase inhibitors for PS1 precursor (holo) enhancement, western blot; format: cell-based; parameters: key to PS1 Precursor Enhancement: −: no effect; +: some effect; ++: moderate effect; +++: strong effect; conditions: ~50 uM inhibitor, 24 hrs; for PS1 Precursor Enhancement: SH-SY5Y neuroblastoma cells; for PS1 precursor (45 kDa band) level / stabilization: SY5Y neuroblastomas
T1 construct: The unprocessed or precursor form of PS1 is evidenced by a band at 45 kDa; endogenous in cells; host or cells: SH-SY5Y neuroblastoma cells
Method: Eighteen different γ-secretase inhibitors (purchased from Calbiochem) were tested for their ability to stabilize the PS1 precursor. SH-SY5Y neuroblastoma cells (1e6) incubated in 6-well plates were dosed with ˜50 uM γ-secretase inhibitor (10% FBS, DMEM) for 24 hrs. Cells were lysed in 2% CHAPS (TBS+protease inhibitors), cell debris pelleted at 18,000 g. Total protein in cell lysates were determined by BCA and 25 ug of protein/lane loaded onto 4-12% BisTris NuPage gels (Invitrogen) that were electrophoresed at 150V for 1 hr. Gels were transferred to PVDF (25V, 1 hr) and probed with anti-N-term PS1 (1:1000, Abcam cat. #ab10281). Western blots were developed using chemiluminescence and imaged using an Alpha Innotech FluorChem Q imaging system. Γ-secretase inhibitors tested: PME, XX, XVII, X, IX, IV, II, I-40, VII, V, III, II-40, I, XIII, XVI, XIX, XXI, CW.
The mature form of PS1 (where PS1 is processed to form a heterodimer) is evidenced by a prominent band at 27 kDa (developed using an antibody specific for the N-terminus of PS1) and is present in all samples. […] The increase in PS1 precursor protein level is interpreted as stabilization of the PS1 precursor and the stabilization appears to be mechanistically distinct from the inhibition of γ-secretase activity since there is no correlation between γ-secretase inhibitory potency (IC50 for Abeta production) and levels of stabilized PS1 precursor (see Table 1).

γ-secretase = γ-secretase (Homo sapiens, UniProt P49768); conditions: known IC50s of the inhibitors; read-out: IC50 (Abeta production); cited from earlier work
PS1 precursor [2] = assay: Time course of PS1 precursor enhancement, western blot; format: cell-based, human; conditions: 10 uM, lymphoblast cell line AG07622
Method: Lymphoblast cell line AG07622 was dosed in 6-well plates with 10 uM of γ-secretase inhibitor X (in 10% FBS, DMEM) for 0 hrs, 2 hrs, 4 hrs, 6 hrs and 24 hrs. Control samples containing 1% DMSO were ran in parallel to the drug treated lymphoblasts. After the specified dosing time, cells were harvested by centrifugation (5000 g, 5 min.), lysed in 2% CHAPS/TBS (with protease inhibitors) and cleared of unsolubilized cell debris by centrifugation (15,000 g, 10 min., 4 C). Total protein was determined by BCA and equivalent proteins loads of 40 ug/lane were separated on a 4-12% BisTris NuPage polyacrylamide gel (Invitrogen) then transferred to PVDF (25V, 1 hr in NuPage Transfer buffer). Western blots were probed with anti-N-term. PS1 (1:1000, Abcam cat. #ab 10281) followed by development using an anti-rabbit alkaline phosphatase conjugate, chemiluminescence detection and imaged using an Alpha Innotech FluorChem Q imaging system.

mature PS1 = biological target: T2, mature PS1 (Homo sapiens, UniProt P49768); assay: Mature PS1 dose response to four day treatment, western blot; format: cell-based; conditions: SY5Y neuroblastomas, four days of treatment, different concentrations
T2 construct: The mature form of PS1 (where PS1 is processed to form a heterodimer) is evidenced by a prominent band at 27 kDa; The mature form of presenlin is a heterodimer consisting of a ˜30 kDa NH2-terminal fragment (NTF) and a ˜20 kDa C-terminal fragment; endogenous in cells; host or cells: SH-SY5Y neuroblastoma cells
Method: SY5Y neuroblastomas grown in 6-well plates were dosed with different concentrations of γ-secretase inhibitors IX, XXI, and XX for four days, after which the cells were harvested by centrifugation (5000 g, 5 min.), lysed in RIPA buffer (TBS, 1% TX100, 0.5% taurodeoxycholate, 0.1% SDS plus protease inhibitors) and cleared of unsolubilized cell debris by centrifugation (15,000 g, 10 min., 4 C). Total protein was determined by BCA and equivalent protein loads of 50 ug/lane were separated on a 4-12% BisTris NuPage polyacrylamide gel (Invitrogen) then transferred to PVDF (25V, 1 hr in NuPage Transfer buffer). Western blots were probed with anti-N-term PS1 (1:1000, Abcam cat. #ab10281) followed by development using an anti-rabbit alkaline phosphatase conjugate, chemiluminescence detection and imaged using an Alpha Innotech FluorChem Q imaging system. After PS1 bands were quantified using the FluorChem Q band analysis software, blots were stripped and re-probed for actin (rabbit anti-actin, Pierce Chemicals).

γ-secretase complex = biological target: T3, γ-secretase complex (Homo sapiens, UniProt P49768); assay: Native gel of intact γ-secretase complex from treated fibroblasts; format: cell-based; conditions: wildtype fibroblasts CRL2076, 0-100 uM for 24 hrs, 6 hr wash out
T3 construct: The mature form of presenlin is a heterodimer consisting of a ˜30 kDa NH2-terminal fragment (NTF) and a ˜20 kDa C-terminal fragment; host or cells: wild-type fibroblasts CRL2076
Method: Wildtype fibroblasts (CRL2076) in a 6-well plate were treated with different doses of γ-secretase inhibitor IV (0, 3.1, 6.25, 12.5, 25 and 100 uM) for 24 hrs, followed by a 6 hr wash out period. Fibroblasts were harvested by gentle scraping in TBS, collected by centrifugation (5000 g, 5 min) and lysed in 1% digitonin (50 mM NaCl, 50 mM Hepes, pH 7.3) overnight at 4° C. Nonsolubilized cell debris was removed by centrifugation (15,000 g, 10 min.). Total protein was determined by BCA and equivalent proteins loads of 40 ug/lane were separated on a 4-16% native BisTris polyacrylamide gel using Blue-Native cathode and anode buffer system (Invitrogen). The native gel was transferred to PVDF (25V, 1 hr in NuPage Transfer buffer), blocked with Blotto (Pierce) and probed with anti-N-term PS1 (1:1000, Abcam cat. #ab10281) followed by development using an anti-rabbit alkaline phosphatase conjugate, chemiluminescence detection and imaged using an Alpha Innotech FluorChem Q imaging system.

| PS1 Precursor Enhancement (PS1 precursor [1]) | PS1 precursor (45 kDa band) level / stabilization (PS1 precursor [1]) | mature PS1 protein levels (mature PS1) | Compound | IC50 (γ-secretase) [nM] | time at which increase in PS1 precursor is first evident (PS1 precursor [2]) [h] | time at which maximum PS1 precursor level is reached (PS1 precursor [2]) [h] | band intensity / level of the γ-secretase complex (γ-secretase complex) |
| --- | --- | --- | --- | --- | --- | --- | --- |
| − |  |  | CC(C)CC(C=O)NC(=O)C(CC(C)C)NC(=O)OC1CC(C)CCC1C(C)C (stereo not drawn) [VII] | 2300 |  |  |  |
| +++ | significantly increased |  | CC(C)C[C@H](NC(=O)[C@H](Cc1ccccc1)C[C@@H](O)[C@H](Cc1ccccc1)NC(=O)OC(C)(C)C)C(=O)N[C@@H](Cc1ccccc1)C(N)=O [X, tert-butyl ((2S,3R,5R)-6-(((S)-1-(((S)-1-amino-1-oxo-3-phenylpropan-2-yl)amino)-4-methyl-1-oxopentan-2-yl)amino)-5-benzyl-3-hydroxy-6-oxo-1-phenylhexan-2-yl)carbamate] | 17 | 2 | 24 |  |
| + | significantly increased |  | CCCCC(C=O)NC(=O)[C@H](CC(C)C)NC(=O)[C@@H](CC(C)C)NC(=O)OCc1ccccc1 (stereo partly drawn) [I, benzyl ((2R)-4-methyl-1-(((2S)-4-methyl-1-oxo-1-((1-oxohexan-2-yl)amino)pentan-2-yl)amino)-1-oxopentan-2-yl)carbamate] (Cbz-[dL]-Leu-[ξNle]-aldehyde) |  |  |  |  |
| − | does not stabilize the PS1 precursor | dose dependent increase | C[C@H](NC(=O)Cc1cc(F)cc(F)c1)C(=O)N[C@H](C(=O)OC(C)(C)C)c1ccccc1 [IX, (S)-tert-butyl 2-((S)-2-(2-(3,5-difluorophenyl)acetamido)propanamido)-2-phenylacetate] |  |  |  |  |
| − |  |  | CC(C)CC(NC(=O)OCc1ccccc1)C(=O)NC(C=O)Cc1ccccc1 (stereo not drawn) [V] (Cbz-Leu-Phe-aldehyde; configuration not given here) | 5000 |  |  |  |
| − |  |  | CC(C)C[C@@H](C=O)NC(=O)[C@@H](CC(C)C)NC(=O)OCc1ccccc1 [III] | 35000 |  |  |  |
| ++ | significantly increased |  | CC(C)[C@H](NC(=O)c1ccc2ccccc2c1)C(=O)N[C@H](C=O)Cc1ccccc1 [IV, N-((S)-3-methyl-1-oxo-1-(((S)-1-oxo-3-phenylpropan-2-yl)amino)butan-2-yl)-2-naphthamide] | 2600 |  |  | increased levels of the γ-secretase complex; also recorded: increases as a function of increasing concentration |
| − | significantly increased |  | CCC(C)C(NC(=O)C=Cc1cc(OC)cc(OC)c1)C(=O)NC(C=O)CC(C)C (stereo not drawn) [I-40, trans-3,5-DMC-Ile-Leu-CHO] | 15000 |  |  |  |
| − |  |  | COC(=O)[C@@H](NC(=O)[C@H](CC(C)C)NC(=O)N(Cc1ccccc1)C[C@@H](O)[C@H](Cc1ccccc1)NC(=O)OC(C)(C)C)C(C)C [XVII, (6S,7R,12S,15S)-methyl 6,9-dibenzyl-7-hydroxy-12-isobutyl-15-isopropyl-2,2-dimethyl-4,10,13-trioxo-3-oxa-5,9,11,14-tetraazahexadecan-16-oate] | 300 |  |  |  |
| − |  |  | CC(C)C(C=O)NC(=O)C(NC(=O)CNC(=O)OC(C)(C)C)C(C)C (stereo not drawn) [II-40] (Boc-Gly-Val-Val-aldehyde; configuration not given here) |  |  |  |  |
| + | significantly increased |  | CCC(C)C(NC(=O)[C@H](Cc1ccc(O)cc1)NC(=O)OCc1ccccc1)C(=O)N[C@H](C=O)CC(C)C (stereo partly drawn) [XIII, benzyl ((2S)-3-(4-hydroxyphenyl)-1-((3-methyl-1-(((S)-4-methyl-1-oxopentan-2-yl)amino)-1-oxopentan-2-yl)amino)-1-oxopropan-2-yl)carbamate] | 8 |  |  |  |
| + | significantly increased |  | (11S)-19-tert- butyl 1-methyl 2,14-di- sec-butyl-9,9-difluoro- 5,17-diisopropyl-11- methyl-4,8,10,15,18- pentaoxo-3,6,7,12,13,16- hexaazanon | 13000 |  |  |  |
| − |  |  | COC(=O)[C@@H](NC(=O)[C@H](C)NC(=O)Cc1cc(F)cc(F)c1)c1ccccc1 [XVI] | 10 |  |  |  |

| Compound | PS1 Precursor Enhancement (PS1 precursor [1]) | PS1 precursor (45 kDa band) level / stabilization (PS1 precursor [1]) | mature PS1 protein levels (mature PS1) | IC50 (γ-secretase) [nM] | time at which increase in PS1 precursor is first evident (PS1 precursor [2]) [h] | time at which maximum PS1 precursor level is reached (PS1 precursor [2]) [h] | band intensity / level of the γ-secretase complex (γ-secretase complex) |
| --- | --- | --- | --- | --- | --- | --- | --- |
| (2R,3R)- 3-(3,4-difluorophenyl)- 2-(4-fluorophenyl)-4- hydroxy-N-((S)-2-oxo-5- phenyl-2,3-dihydro-1H- benzo[e][1,4]diazepin-3- yl)butanamide [XIX] | + | significantly increased |  | 0.06 |  |  |  |
| C[C@H](NC(=O)Cc1cc(F)cc(F)c1)C(=O)N[C@@H]1C(=O)N(C)c2ccccc2-c2ccccc21 [XX, (S)-2-(2-(3,5-difluoro-phenyl)acetamido)-N-((S)-5-methyl-6-oxo-6,7-dihydro-5H-dibenzo[b,d]azepin-7-yl)propanamide] | +++ | significantly increased; also recorded: do stabilize the PS1 precursor | dose dependent increase | 1.7 |  |  |  |
| O=C(O)c1cc(Oc2ccc([N+](=O)[O-])cc2)cc(Oc2ccc([N+](=O)[O-])cc2)c1 [CW] | − |  |  |  |  |  |  |
